Test results from US6239284A, “Aromatic tetracyclic compounds of the retinoid type method for preparing and use” (priority 1997, dated 2001).
Entries after “also recorded” stand apart in the source; their conditions may differ.

Assays:
RARE [1] = test: HRLN transactivation (stably transfected HeLa, RARE3-tk-Luc, endogenic receptors); assay type: cell-based
Source text: (§1) The cellular lineages HRLN and HRL+N allow one to study the activation of an RARE by endogenic receptors using ligands at physiological concentrations. These lineages derive from HeLa cells transfected in a stable fashion by a reporter gene which places the expression of the gene of the luciferase under the control of a nuclear response element RARE (RARE3 -tk-Luc). The HeLa cells express all the known receptors of the retinoic acid (RARα,β,γ and RXRα,β,γ) with a predominance of RARα and RXRα. The response element RARE used for the HRLN cells corresponds to the sequence of the natural gene of the RARβ receptor (GGTTCAnnnnnAGTTCA). The HRL+N cells comprise the sequence GAGTGAnnnnnCGGTGA.

RAR = test: RAR-ERcassette model, specificity profile (transient transfection of HeLa cells); assay type: cell-based
Source text: (§2) The HeLa cells are co-transfected by a plasmid which codes for a retinoic receptor in which the C domain of bonding to the DNA is substituted by that of the receptor to RE estrogens, and a plasmid which places the expression of the luciferase under the control of an ERE (Element of Response to Estrogens). The expressed chimerical receptors are designated as RARα-ERcassette, RARβ-ERcassette, RARγ-ERcassette and RXRα-ERcassette. The A, B, D, E and F regions of the natural receptor are preserved as well as the transcriptional co-operation between the activation domains AF-1 and AF-2. These transitory transfection experiments follow the method of co-precipitation to calcium phosphate. The HeLa cells are co-transfected by […] of plasmid coding for the chimerical receptor, […] of reporter plasmid and […] of expression vector CMV-β-galactosidase used as an internal control of transfection. 24 hours after the transfection, the cells are incubated for 16 hours with the different effectors.
(§3) In this type of chimerical receptor, the C domain of bonding to the DNA of RAR is substituted by that of the receptor to the RE estrogens. The protein obtained is close to the natural RAR receptor and preserves the transcriptional properties of the AF-1 and AF-2 domains. It modulates the transcription by means of an ERE. This RAR-ERcassette model allows one to observe a transcriptional response to a more physiological ligand.
(§4) The study of the selectivity of the compounds was carried out with the RAR-ERcassette chimerical receptors model.

ERE = test: Anti-estrogenic effect, MELN cellular lineage (MCF-7 with ERE-βGlob-Luc) activated by estradiol; assay type: cell-based, human; details: for inhibition at 1 µM: -6 log M (10^-6 M), 10^-9 M estradiol
Experimental: MCF-7 cells express RARα,γ and RXRα. The transfection of MCF-7 cells by an estrogen-dependent gene (ERE-βGlob-Luc) has permitted the establishment of the MELN cellular lineage, used to determine the anti-oestrogenic activity of the retinoids. These cells contain the gene of the luciferase under the transcriptional control of the promoter of the βGlobine and of the response element ERE isolated from the gene of chicken vitelogenine A2. The experiments are carried out with MELN cells activated by 10^-9 M estradiol. The level of base activity of the MELN cells is obtained with the anti-estrogen 1 μM 4-OH-tamoxifen (hydroxytamoxifen).
The effect of the products tested on the cells activated by 10^-9 M estradiol is expressed as a percentage, the level of base activity being deducted.

AP-1 = test: Anti-AP-1 effect, MTLN cellular lineage (MCF-7 with (TRE)3-tk-Luc) activated by TPA; assay type: cell-based, human
Experimental: The anti-factor AP-1 transrepressor effect of retinoids is determined using the MTLN lineage, coming from MCF-7 cells transfected in a stable fashion by a vector p(TRE)3 -tk-Luc which places the expression of the gene of luciferase under the control of […]. TPA activates the AP-1 complex formed from proteins of the family of nuclear proto-oncogenes (c-Jun and c-Fos). […] The experiments ware made with the MTLN cells activated by 10^-7 M TPA.
The effect of the compounds on the MTLN cells activated by 10^-7 M TPA is expressed as a percentage. […] The inhibitive properties of the products are calculated after deduction of the base activity of the cells. The percentages reported correspond to a range of inhibitions determined from several experiments.

T-47D cells = test: Anti-proliferation effect, estrogen-induced growth of T-47D cells; assay type: cell-based, human; details: Homo sapiens, T47D, 168 h, read-out: T-47D IC50 (growth inhibition by 50%)
Experimental: So as to test the anti-proliferation effect of the retinoids, growth experiments under oestrogenic conditions were carried out on cells MCF-7 and T-47D. These are the human estrogen-dependent mammary cancer cells which express the receptor to RE estrogens. The effect of the molecules is evaluated after 7 days of culture in oestrogenic conditions (estradiol 10^-9 M) by dosing the cellular DNA. The cells are distributed in 24 well plates at a density of 2×10^4 cells per well. The tests with the different retinoids are carried out in triplicate and the culture medium is changed after 4 days of growth.
The effect of the retinoids on the growth of MCF-7 and T-47D cells is evaluated after 7 days of culture in the presence of 10^-9 M estradiol by dosing the cellular DNA.

RARα = test: Transactivation of chimerical receptor RARα-ERcassette, transient transfection of HeLa cells; assay type: cell-based; details: for RAR-ERcassette RARα transactivation (%): 100% = TTNPB 10^-8 M
Source text: as §2, §3, §4
(§5) On one and the same line in the Table, the cis (Z) compound represents the isomeric structure of the trans (E) compound.

RARβ = test: Transactivation of chimerical receptor RARβ-ERcassette, transient transfection of HeLa cells; assay type: cell-based; details: -6 log M (1 μM); 100% = TTNPB 10^-8 M
Source text: as §2, §3, §4, §5

RARγ = test: Transactivation of chimerical receptor RARγ-ERcassette, transient transfection of HeLa cells; assay type: cell-based; details: -6 log M (1 μM); 100% = TTNPB 10^-8 M
Source text: as §2, §3, §4, §5

RARE [2] = test: HRL+N transactivation (stably transfected HeLa, RARE reporter, endogenic receptors); assay type: cell-based; details: Homo sapiens, HeLa; Table 12; 1 μM
Source text: as §1
The HRL+N lineage allows one to visualize a co-activation of the RAR and RXR receptors at the level of the RAR-RXR hetero-dimer.

[3] = Homo sapiens, read-out: Anti-oestrogenic effect, Inhibition (%)

Row | Compound | HRLN transactivation in words (RARE [1]) | RAR-ERcassette profile in words (RAR) | RAR-ERcassette RARα transactivation (%) (RARα; -6 log M (1 μM)) | activation at 1 µM (RARE [1]; Homo sapiens, HeLa) [%] | RAR-ERcassette RARβ transactivation (%) (RARβ) | inhibition at 1 µM (ERE; [3]) [%] | RAR-ERcassette RARγ transactivation (%) (RARγ) | also measured
1 | CC1=C(/C=C/C(C)=C\C=C\C(C)=C\C(=O)O)C(C)(C)CCC1 [9-cis RA, reference compound] | dose-dependent activation | induce an over-expression of luciferase in comparison to the induction brought about by a synthetic compound (TTNPB) | 348 |  |  |  |  | Emax (RARE [1]; Homo sapiens, HeLa, read-out: HRLN transactivation E max %): 196%; inhibition at 0.1 µM (ERE; [3]): 35%; Anti-AP-1 effect, Inhibition (%) (AP-1; -8 log M, 10^-7 M TPA, range of several experiments): 30-37%; IC50 (T-47D cells): 0.0251 ± 0.0014 µM; RAR-ERcassette RARα transactivation (%) (RARα; -7 log M): 187%; RAR-ERcassette RARα transactivation (%) (RARα; -8 log M): 60%; RAR-ERcassette RARα transactivation (%) (RARα; -9 log M): 7%
2 | Cc1cc2c(cc1/C=C1\CCc3cc(-c4nnn[nH]4)ccc31)C(C)(C)CCC2(C)C [CB23804, (E) 5-[1-[2-(5,6,7,8-tetrahydro-3,5,5,8,8-pentamethyl)naphthalenylmethylene]-2,3-dihydro-1H-indenyl]-1H-tetrazole] | slightly active | weakly active | 4 | 15 | 28 | 0 | 19 | 
3 | CC1(C)CCC(C)(C)c2cc(/C=C3/CCc4cc(C(=O)O)ccc43)ccc21 [CB27871] | partial transactivation |  | 29 | 27 | 36 |  | 67 | 
4 | Cc1cc2c(cc1/C=C1\CCc3cc(C(=O)O)ccc31)C(C)(C)CCC2(C)C [CB40341, (E) 1-[2-(5,6,7,8-tetrahydro-3,5,5,8,8-pentamethyl)naphthalenylmethylene]-2,3-dihydro-1H-indene-5-carboxylic acid] | partial transactivation | RARβ,γ specificity; also recorded: RARβ,γ selectivity | 14 | 30 | 75 |  | 79 | RARα transactivation (RAR-ERcassette) in words (RARα): inactive on RARα
5 | CC1Cc2cc(C(=O)O)ccc2/C1=C/c1ccc2c(c1)C(C)(C)CCC2(C)C (stereo not shown) [CB52809, (E) 1-[2-(5,6,7,8-tetrahydro-5,5,8,8-tetramethyl)naphthalenylmethylene]-2,3-dihydro-2-methyl-1H-indene-5-carboxylic acid] |  |  | 5 | 0 | 0 | 0 | 13 | 
6 | CC1(C)CCC(C)(C)c2cc(/C=C3\CCCc4cc(C(=O)O)ccc43)ccc21 [CB66049, (E) 1-[2-(5,6,7,8-tetrahydro-5,5,8,8-tetramethyl)naphthalenylmethylene]-1,2,3,4-tetrahydronaphthalene-6-carboxylic acid] | inactive | The same result is observed | 0 | 0 | 0 |  | 8 | 
7 | CC1(C)CCC(C)(C)c2cc(/C=C3\CCc4cc(C(=O)O)ccc43)ccc21 [CB78937, (E) 1-[2-(5,6,7,8-tetrahydro-5,5,8,8-tetramethyl)naphthalenylmethylene]-2,3-dihydro-1H-indene-5-carboxylic acid] | partial transactivation | RARβ,γ specificity; also recorded: RARβ,γ selectivity | 18 | 25 | 65 | 4 | 93 | RARα transactivation (RAR-ERcassette) in words (RARα): inactive on RARα
8 | CC1(C)CCC(C)(C)c2cc(/C=C3/CCCc4cc(C(=O)O)ccc43)ccc21 [CB80830, (Z) 1-[2-(5,6,7,8-tetrahydro-5,5,8,8-tetramethyl)naphthalenylmethylene]-1,2,3,4-tetrahydronaphthalene-6-carboxylic acid] | inactive | The same result is observed | 2 | 4 | 0 | 2 | 1 | 
9 | CC1(C)CCC(C)(C)c2cc(/C=C3/CCc4cc(-c5nnn[nH]5)ccc43)ccc21 [CB94083, (Z) 5-[1-[2-(5,6,7,8-tetrahydro-5,5,8,8-tetramethyl)naphthalenylmethylene]-2,3-dihydro-1H-indenyl]-1H-tetrazole] |  | weakly active | 4 |  | 14 |  | 18 | activation at 1 µM (RARE [2]): 13%
10 | CC1(C)CCC(C)(C)c2cc(/C=C3\CCc4cc(-c5nnn[nH]5)ccc43)ccc21 [CB99811, (E) 5-[1-[2-(5,6,7,8-tetrahydro-5,5,8,8-tetramethyl)naphthalenylmethylene]-2,3,-dihydro-1H-indenyl]-1H-tetrazole] |  | weakly active | 3 |  | 11 |  | 14 | 
11 | CCCCCCCOc1cc2c(cc1/C(C)=C/c1ccc(C(=O)O)cc1)C(C)(C)CCS2(=O)=O [Ro 41-5253] | totally abolishes the response of Am580 and partially abolishes that of TTNPB |  |  |  |  |  |  | Anti-estrogenic effect (MELN) in words (ERE): raises the inhibitor effect of Am580 and also of TTNPB; Anti-AP-1 effect (MTLN) in words (AP-1): does not allow the inhibition induced by TTNPB to be totally lifted
